According to ChEMBL document CHEMBL1201862, “PubChem BioAssay data set” (2004):
Calls of active or inactive are those of the source.

Assays:
[1] = biological target: Peroxisome proliferator-activated receptor gamma/Nuclear receptor coactivator 2 (Homo sapiens, UniProt P37231); format: functional;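 further: agonist potency for raising coactivator recruitment to the receptor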
[2] = biological target: Peroxisome proliferator-activated receptor gamma/Nuclear receptor coactivator 1 (Homo sapiens, UniProt P37231); format: functional;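 further: agonist potency as compounds enhance coactivator SRC-1 recruitment to PPARgamma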
[3] = biological target: Peroxisome proliferator-activated receptor gamma/Nuclear receptor coactivator 3 (Homo sapiens, UniProt P37231); format: functional;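 further: agonist potency for raising coactivator recruitment to the receptor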
HeLa = assay: viability loss in HeLa cells – cell-based, 24 h, cherry-picked samples, cytotoxicity control, dose response (AID 504726); format: functional; conditions: Homo sapiens;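 further: potency for cytotoxicity as loss of luminescence signal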
[4] = biological target: T1, RNA-binding protein pos-1 (Caenorhabditis elegans, UniProt G5EF15); assay: disruptors of C. elegans POS-1 RNA interaction – biochemical, fluorescence polarization, dose response (AID 1964);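 further: purified POS-1 fused to maltose binding protein made in E. coli; potency of compounds blocking POS-1 binding to fluorescent RNA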
T1 sequence (G5EF15 whole entry): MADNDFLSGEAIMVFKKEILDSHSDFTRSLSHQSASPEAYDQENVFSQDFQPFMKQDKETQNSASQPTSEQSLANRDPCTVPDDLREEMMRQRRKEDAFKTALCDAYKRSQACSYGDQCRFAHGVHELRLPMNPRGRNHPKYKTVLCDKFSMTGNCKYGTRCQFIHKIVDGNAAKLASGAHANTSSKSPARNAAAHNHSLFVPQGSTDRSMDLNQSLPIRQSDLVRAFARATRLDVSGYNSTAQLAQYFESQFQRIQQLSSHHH

[5] = biological target: T2, Zinc finger protein mex-5 (Caenorhabditis elegans, UniProt Q9XUB2); assay: potency of MEX-5 RNA-binding blockers – biochemical, C. elegans, fluorescence polarization, dose response (AID 1960)
T2 sequence (Q9XUB2 whole entry): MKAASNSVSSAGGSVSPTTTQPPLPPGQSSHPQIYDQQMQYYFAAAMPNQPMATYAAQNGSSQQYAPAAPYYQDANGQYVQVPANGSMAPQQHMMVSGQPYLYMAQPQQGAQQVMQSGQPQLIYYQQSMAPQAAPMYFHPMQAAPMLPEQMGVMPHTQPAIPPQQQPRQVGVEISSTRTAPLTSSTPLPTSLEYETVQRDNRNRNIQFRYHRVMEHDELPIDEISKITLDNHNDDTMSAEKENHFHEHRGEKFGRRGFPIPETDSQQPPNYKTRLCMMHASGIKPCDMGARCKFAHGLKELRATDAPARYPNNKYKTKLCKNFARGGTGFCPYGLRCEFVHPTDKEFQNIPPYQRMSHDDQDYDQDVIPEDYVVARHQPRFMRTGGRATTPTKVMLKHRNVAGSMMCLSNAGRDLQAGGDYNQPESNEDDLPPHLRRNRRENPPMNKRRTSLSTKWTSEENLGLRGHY

[6] = biological target: G-protein coupled receptor 55 (Homo sapiens, UniProt Q9Y2T6); assay: inhibition of LPI-stimulated GPR55 beta-arrestin translocation – imaging, U2OS, beta-arrestin-GFP, LPI agonist, primary screen (AID 2013); format: functional;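 further: antagonist potency measured as reduced agonist-driven arrestin aggregation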
Mucolipin-3 = biological target: T3, Mucolipin-3 (Homo sapiens, UniProt Q8TDD5); assay: Dose response cell-based high-throughput screening assay for agonists of the transient receptor potential channel ML3 (TRPML3). [Related pubchem assays: 1526, 1424, 1448 ]; format: functional
T3 sequence (Q8TDD5 whole entry): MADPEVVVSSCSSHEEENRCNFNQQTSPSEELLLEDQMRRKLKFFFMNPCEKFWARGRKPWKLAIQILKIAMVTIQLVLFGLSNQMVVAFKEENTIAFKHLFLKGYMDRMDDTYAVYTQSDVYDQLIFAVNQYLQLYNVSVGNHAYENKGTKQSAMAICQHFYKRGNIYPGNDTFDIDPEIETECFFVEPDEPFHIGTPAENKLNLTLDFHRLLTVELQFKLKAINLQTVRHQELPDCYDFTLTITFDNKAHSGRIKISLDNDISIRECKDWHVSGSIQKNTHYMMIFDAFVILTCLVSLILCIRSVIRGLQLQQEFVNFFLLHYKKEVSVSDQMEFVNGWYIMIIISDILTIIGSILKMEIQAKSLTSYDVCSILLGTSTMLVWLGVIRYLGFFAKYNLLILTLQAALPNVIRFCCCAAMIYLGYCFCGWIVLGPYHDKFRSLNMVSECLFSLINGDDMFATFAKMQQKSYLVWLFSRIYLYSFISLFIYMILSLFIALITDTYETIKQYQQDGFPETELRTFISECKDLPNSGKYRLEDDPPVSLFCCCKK

Ion channel NompC = Ion channel NompC (Danio rerio, UniProt Q7T1G6); assay: Fluorescence counterscreen assay for TRPML3 agonists: dose response cell-based high-throughput screening assay to identify agonists of the transient receptor potential channel N1 (TRPN1). [Related pubchem assays: 1526, 1424, 1448 ]; format: functional
[7] = biological target: T4, Heat shock factor protein 1 (Mus musculus, UniProt P38532); assay: decrease of HSF1-responsive luciferase luminescence – cell-based, NIH3T3, dose retest, confirmation (AID 2382); format: functional;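 further: NIH3T3 fibroblasts with HSF1-driven luciferase reporter stressed by proteasome inhibitor MG132; luminescence from HSF1-driven luciferase expression after 8 hours of MG132 stress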
T4 sequence (P38532 whole entry): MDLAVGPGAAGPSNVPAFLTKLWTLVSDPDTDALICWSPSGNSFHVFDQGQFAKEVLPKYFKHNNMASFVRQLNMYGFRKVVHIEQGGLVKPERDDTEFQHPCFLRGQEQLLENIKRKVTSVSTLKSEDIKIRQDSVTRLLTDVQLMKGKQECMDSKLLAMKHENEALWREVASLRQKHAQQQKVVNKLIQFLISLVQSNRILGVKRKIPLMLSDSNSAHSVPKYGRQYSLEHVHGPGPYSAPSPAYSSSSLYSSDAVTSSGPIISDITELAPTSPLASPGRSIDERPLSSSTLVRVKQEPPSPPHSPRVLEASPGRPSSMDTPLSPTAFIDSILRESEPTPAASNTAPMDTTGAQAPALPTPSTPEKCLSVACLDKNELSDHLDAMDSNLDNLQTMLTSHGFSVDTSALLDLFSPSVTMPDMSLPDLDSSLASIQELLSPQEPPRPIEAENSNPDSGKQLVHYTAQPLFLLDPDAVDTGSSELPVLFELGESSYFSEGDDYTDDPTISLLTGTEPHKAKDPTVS

Leucine aminopeptidase = biological target: T5, Leucine aminopeptidase (Plasmodium falciparum 3D7, UniProt Q8IL11); assay: P. falciparum M17LAP inhibitors, primary screen, biochemical, fluorogenic H-Leu-NHMec substrate, 1536-well (AID 1619); format: functional
T5 sequence (Q8IL11 whole entry): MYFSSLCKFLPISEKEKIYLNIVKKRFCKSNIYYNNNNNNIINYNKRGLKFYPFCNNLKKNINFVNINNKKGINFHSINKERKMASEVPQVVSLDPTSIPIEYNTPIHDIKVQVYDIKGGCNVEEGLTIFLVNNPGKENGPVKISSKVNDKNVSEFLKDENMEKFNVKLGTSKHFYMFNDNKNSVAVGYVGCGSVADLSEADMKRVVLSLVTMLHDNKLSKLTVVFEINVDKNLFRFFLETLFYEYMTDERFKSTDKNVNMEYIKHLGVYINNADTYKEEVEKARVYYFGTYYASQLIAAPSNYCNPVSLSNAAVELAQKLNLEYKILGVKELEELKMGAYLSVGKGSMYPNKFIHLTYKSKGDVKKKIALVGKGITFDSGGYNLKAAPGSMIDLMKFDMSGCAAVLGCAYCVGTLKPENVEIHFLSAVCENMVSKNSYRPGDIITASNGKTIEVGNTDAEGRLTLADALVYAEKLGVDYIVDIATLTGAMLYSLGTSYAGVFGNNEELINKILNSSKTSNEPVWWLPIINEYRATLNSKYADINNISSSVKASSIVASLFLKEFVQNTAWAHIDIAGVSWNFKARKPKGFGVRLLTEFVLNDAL

HEK293 [8] = assay: inhibition of NOD1-driven NF-kB reporter – cell-based, luminescence, uHTS, primary screen (AID 1578); format: functional; conditions: Homo sapiens
HEK293 [9] = assay: cells; format: functional, cell-based; conditions: Homo sapiens
HEK293 [10] = assay: cells; format: functional, cell-based; conditions: Homo sapiens; remark: listed apart in the source
[11] = biological target: Nucleotide-binding oligomerization domain-containing protein 2 (Homo sapiens, UniProt Q9HC29); assay: inhibition of NOD2-driven NF-kB reporter – cell-based, luminescence, uHTS, HEK293 (AID 1566); format: functional
HEK293 [12] = assay: NOD2 signaling inhibitors in MDP-stimulated cells, cell-based, uHTS, luminescence (AID 2001); format: functional; conditions: Homo sapiens
HEK293 [13] = assay: cells; format: functional, cell-based; conditions: Homo sapiens; remark: listed apart in the source
[14] = biological target: DNA dC->dU-editing enzyme APOBEC-3A (Homo sapiens, UniProt P31941); assay: A3A deaminase inhibition for selectivity – biochemical, dose response (AID 504722); format: functional
[15] = biological target: DNA dC->dU-editing enzyme APOBEC-3G (Homo sapiens, UniProt Q9HC16); assay: Dose Response confirmation of small molecule APOBEC3G DNA Deaminase Inhibitors via a fluorescence-based single-stranded DNA deaminase assay. [Related pubchem assays (depositor defined):AID493012, AID493028]; format: functional
Large T antigen = Large T antigen (Simian virus 40, UniProt P03070); format: functional, Betapolyomavirus macacae;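 further: Confirmatory-stage PubChem screen for compounds that inhibit SV40 T antigen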

Peroxisome proliferator-activated receptor gamma/Nuclear receptor coactivator 3, sequence (P37231 whole entry): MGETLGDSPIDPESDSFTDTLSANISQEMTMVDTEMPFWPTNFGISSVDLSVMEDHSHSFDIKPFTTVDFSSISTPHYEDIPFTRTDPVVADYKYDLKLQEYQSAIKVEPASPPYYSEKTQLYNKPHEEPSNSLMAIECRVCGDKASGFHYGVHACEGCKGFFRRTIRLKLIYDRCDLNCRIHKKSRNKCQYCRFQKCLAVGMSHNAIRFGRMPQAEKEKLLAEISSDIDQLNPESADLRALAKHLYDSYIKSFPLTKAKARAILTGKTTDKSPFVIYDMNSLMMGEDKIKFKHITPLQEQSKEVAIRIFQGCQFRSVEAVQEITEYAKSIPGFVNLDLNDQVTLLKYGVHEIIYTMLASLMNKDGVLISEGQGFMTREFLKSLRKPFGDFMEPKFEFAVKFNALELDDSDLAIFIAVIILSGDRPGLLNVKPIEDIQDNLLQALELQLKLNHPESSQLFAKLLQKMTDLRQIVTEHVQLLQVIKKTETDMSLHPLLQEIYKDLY
Peroxisome proliferator-activated receptor gamma/Nuclear receptor coactivator 3, sequence (Q9Y6Q9 whole entry, further chain): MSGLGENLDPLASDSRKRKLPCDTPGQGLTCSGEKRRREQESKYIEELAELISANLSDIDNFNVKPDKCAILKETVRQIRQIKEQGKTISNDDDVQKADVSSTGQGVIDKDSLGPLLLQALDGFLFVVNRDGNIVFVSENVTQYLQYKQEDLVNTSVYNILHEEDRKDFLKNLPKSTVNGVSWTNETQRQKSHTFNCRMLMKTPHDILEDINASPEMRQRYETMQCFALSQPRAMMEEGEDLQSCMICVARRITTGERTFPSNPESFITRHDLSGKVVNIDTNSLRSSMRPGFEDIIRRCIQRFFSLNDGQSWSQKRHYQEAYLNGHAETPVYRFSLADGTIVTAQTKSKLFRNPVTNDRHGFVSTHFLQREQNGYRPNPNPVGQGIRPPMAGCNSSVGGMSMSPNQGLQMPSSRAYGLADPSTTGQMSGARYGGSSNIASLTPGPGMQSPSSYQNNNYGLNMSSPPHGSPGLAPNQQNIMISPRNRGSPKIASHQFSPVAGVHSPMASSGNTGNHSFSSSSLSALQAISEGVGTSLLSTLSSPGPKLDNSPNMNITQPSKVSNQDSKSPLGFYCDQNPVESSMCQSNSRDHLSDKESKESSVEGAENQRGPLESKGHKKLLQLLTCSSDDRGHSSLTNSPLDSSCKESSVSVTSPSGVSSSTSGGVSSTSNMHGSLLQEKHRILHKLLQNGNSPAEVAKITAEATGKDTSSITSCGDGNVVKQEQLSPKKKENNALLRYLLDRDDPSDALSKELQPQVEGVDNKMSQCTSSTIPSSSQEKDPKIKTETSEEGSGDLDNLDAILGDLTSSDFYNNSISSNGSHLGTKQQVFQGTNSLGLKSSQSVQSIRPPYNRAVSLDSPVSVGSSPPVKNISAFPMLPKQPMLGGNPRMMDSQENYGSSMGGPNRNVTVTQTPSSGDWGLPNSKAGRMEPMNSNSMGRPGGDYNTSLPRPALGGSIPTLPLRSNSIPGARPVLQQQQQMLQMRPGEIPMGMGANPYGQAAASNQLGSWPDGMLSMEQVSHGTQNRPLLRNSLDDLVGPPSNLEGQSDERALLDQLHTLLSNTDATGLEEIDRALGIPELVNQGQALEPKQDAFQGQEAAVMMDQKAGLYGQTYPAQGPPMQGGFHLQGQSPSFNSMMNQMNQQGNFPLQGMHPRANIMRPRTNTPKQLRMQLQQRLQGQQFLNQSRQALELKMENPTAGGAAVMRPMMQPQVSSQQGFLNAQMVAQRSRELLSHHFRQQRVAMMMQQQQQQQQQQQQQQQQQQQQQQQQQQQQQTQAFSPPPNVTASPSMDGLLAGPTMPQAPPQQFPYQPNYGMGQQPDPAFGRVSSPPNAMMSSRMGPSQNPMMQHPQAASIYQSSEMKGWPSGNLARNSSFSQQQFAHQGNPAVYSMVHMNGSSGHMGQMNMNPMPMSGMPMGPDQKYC
Peroxisome proliferator-activated receptor gamma/Nuclear receptor coactivator 2, sequence (P37231 whole entry): as the sequence (P37231 whole entry) above
Peroxisome proliferator-activated receptor gamma/Nuclear receptor coactivator 2, sequence (Q15596 whole entry, further chain): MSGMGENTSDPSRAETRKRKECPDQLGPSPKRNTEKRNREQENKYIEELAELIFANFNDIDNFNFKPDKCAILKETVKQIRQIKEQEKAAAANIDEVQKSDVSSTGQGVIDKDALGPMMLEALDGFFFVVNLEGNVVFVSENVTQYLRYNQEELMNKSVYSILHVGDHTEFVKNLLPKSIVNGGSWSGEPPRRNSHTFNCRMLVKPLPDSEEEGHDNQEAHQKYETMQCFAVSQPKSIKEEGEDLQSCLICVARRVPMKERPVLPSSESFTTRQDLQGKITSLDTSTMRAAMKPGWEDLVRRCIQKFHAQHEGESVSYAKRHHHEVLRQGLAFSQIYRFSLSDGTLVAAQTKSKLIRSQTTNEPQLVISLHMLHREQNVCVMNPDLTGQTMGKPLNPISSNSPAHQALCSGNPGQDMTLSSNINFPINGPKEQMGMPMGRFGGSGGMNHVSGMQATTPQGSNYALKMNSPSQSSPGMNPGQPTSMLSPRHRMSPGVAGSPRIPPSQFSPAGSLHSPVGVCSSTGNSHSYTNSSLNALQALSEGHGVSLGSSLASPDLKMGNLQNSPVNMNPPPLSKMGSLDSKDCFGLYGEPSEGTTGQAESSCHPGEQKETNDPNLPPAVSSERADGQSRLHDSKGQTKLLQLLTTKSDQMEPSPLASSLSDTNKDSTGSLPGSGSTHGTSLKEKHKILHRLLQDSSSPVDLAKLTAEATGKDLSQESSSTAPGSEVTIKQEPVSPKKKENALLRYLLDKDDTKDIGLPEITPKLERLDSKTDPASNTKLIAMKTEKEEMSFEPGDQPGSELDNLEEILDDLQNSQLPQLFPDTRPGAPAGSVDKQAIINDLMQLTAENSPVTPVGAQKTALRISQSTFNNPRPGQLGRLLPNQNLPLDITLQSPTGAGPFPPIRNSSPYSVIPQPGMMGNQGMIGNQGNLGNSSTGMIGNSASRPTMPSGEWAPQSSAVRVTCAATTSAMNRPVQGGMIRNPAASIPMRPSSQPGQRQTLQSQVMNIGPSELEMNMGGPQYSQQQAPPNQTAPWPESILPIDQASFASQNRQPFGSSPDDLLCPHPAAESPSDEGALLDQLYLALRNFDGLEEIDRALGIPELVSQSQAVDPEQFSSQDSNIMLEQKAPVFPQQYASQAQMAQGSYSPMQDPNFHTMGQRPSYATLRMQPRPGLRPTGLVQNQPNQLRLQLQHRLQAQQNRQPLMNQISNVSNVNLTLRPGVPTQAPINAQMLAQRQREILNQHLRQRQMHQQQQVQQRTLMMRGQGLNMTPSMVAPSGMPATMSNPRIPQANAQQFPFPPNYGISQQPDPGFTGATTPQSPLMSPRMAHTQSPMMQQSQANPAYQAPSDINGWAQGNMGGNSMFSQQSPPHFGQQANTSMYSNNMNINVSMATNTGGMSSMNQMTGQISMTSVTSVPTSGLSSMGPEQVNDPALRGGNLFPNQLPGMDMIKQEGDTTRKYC
DNA dC->dU-editing enzyme APOBEC-3G, sequence (Q9HC16 whole entry): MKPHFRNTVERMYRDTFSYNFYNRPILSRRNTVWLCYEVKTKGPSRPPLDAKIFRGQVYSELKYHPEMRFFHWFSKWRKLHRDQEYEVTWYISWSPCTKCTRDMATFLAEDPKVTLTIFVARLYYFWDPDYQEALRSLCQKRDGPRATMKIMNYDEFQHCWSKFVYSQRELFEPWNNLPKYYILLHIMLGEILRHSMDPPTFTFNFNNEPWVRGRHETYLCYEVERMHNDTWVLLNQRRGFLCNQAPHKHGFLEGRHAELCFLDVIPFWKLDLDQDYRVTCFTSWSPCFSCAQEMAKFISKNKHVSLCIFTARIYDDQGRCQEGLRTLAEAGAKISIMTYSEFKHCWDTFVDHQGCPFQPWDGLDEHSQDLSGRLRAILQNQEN
DNA dC->dU-editing enzyme APOBEC-3A, sequence (P31941 whole entry): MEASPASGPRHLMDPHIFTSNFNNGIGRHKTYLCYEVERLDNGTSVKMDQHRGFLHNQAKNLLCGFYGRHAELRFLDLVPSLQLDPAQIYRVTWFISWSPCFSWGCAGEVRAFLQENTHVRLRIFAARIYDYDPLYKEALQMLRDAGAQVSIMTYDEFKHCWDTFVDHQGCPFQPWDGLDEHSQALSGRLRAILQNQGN
G-protein coupled receptor 55, sequence (Q9Y2T6 whole entry): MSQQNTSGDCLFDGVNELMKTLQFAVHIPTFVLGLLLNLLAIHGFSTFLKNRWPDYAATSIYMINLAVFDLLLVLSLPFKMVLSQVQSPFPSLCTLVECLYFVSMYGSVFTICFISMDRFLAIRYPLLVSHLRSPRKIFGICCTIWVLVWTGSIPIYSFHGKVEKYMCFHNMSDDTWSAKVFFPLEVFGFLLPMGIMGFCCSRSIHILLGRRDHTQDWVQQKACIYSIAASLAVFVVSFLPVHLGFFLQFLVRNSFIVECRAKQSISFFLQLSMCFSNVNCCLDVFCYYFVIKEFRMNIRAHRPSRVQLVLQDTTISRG

**Q.** Which EC50 [1] does the source give for `CC(C)[C@H](NC(=O)OC(C)(C)C)c1nnc(SCc2cccc(F)c2)o1` here?
**A.** The EC50 was 24 µM (not active).

**Q.** What about the EC50 [2] of the same compound?
**A.** The EC50 was 8.46 µM (active).

**Q.** And the EC50 [3]?
**A.** Its EC50 is 16.9 µM (not active).

**Q.** Which AC50 (HeLa) does the source give for `CCOC(=O)c1c(C)n(C)c2ccc(OCCN(C)C)cc12` here?
**A.** The AC50 was > 350 µM (inactive).

**Q.** What does the source list for `Cc1ccc(/C=C2/C(=O)NC(=O)N(CCc3ccc(F)cc3)C2=O)o1`?
**A.** EC50 [4]: > 300 µM (not active); EC50 [5]: 290 µM (active); IC50 [6]: 4.5 µM (active)

**Q.** How did the EC50 [1] turn out when `CCOC(=O)C1CCN(CCC(=O)Nc2ccc(C)c(C)c2)CC1` was run?
**A.** Its EC50 is > 79.4 µM (not active).

**Q.** And the EC50 [2]?
**A.** The EC50 was > 79.4 µM (not active).

**Q.** And the EC50 [3]?
**A.** The EC50 was > 79.4 µM (not active).

**Q.** With `CC1CC(C)CN(C(=O)c2ccc3ncsc3c2)C1` (stereo not drawn) as the compound, how does the AC50 (HeLa) read?
**A.** The AC50 was 95.4 µM (active).

**Q.** With `CCC1CCCCN1S(=O)(=O)c1ccc(S(=O)(=O)N(Cc2cccs2)C2CC2)cc1` (stereo not drawn) as the compound, how does the EC50 (Mucolipin-3) read?
**A.** Its EC50 is 1.16 µM (active).

**Q.** And the EC50 (Ion channel NompC)?
**A.** Its EC50 is > 29.9 µM (not active).

**Q.** With `Cc1ccc(S(=O)(=O)N2CCC(C)CC2)cc1[N+](=O)[O-]` as the compound, how does the EC50 [7] read?
**A.** Its EC50 is > 195 µM (not active).

**Q.** And the EC50 (Mucolipin-3)?
**A.** Its EC50 is 3.51 µM (active).

**Q.** What about the EC50 (Ion channel NompC) of the same compound?
**A.** Its EC50 is > 29.9 µM (not active).

**Q.** What does the source list for `CC(Sc1nc2ccccc2s1)C(=O)Nc1nnc(C(C)C)s1` (stereo not drawn)?
**A.** IC50 (Leucine aminopeptidase): 2.84 µM (active); EC50 [7]: > 195 µM (not active); AC50 (HeLa): > 350 µM (inactive)

**Q.** How did the EC50 (HEK293 [8]) turn out when `Cc1cc(C(=O)COc2cccnc2[N+](=O)[O-])c(C)n1Cc1cccs1` was run?
**A.** Its EC50 is > 20 µM (inactive).

**Q.** And the IC50 (HEK293 [9])?
**A.** The IC50 was > 20 µM (inactive).

**Q.** What about the IC50 (HEK293 [10]) of the same compound?
**A.** Its IC50 is > 20 µM (inactive).

**Q.** What about the EC50 [11] of the same compound?
**A.** The EC50 was 8.89 µM (active).

**Q.** And the IC50 (HEK293 [12])?
**A.** The IC50 was > 20 µM (inactive).

**Q.** What about the IC50 (HEK293 [13]) of the same compound?
**A.** Its IC50 is > 20 µM (inactive).

**Q.** For `COc1cccc2cc(-c3n[nH]c(=S)n3C)oc12`, which IC50 [14] is on record?
**A.** Its IC50 is > 100 µM (inactive).

**Q.** What about the IC50 [15] of the same compound?
**A.** The IC50 was 2.18 µM (active).

**Q.** For `Cn1ncc([N+](=O)[O-])c1C(=O)N/N=C/c1ccc(F)cc1`, which EC50 [1] is on record?
**A.** The EC50 was > 79.4 µM (not active).

**Q.** What about the EC50 [2] of the same compound?
**A.** The EC50 was > 79.4 µM (not active).

**Q.** And the EC50 [3]?
**A.** The EC50 was > 79.4 µM (not active).

**Q.** For `COc1cc(/C=N/n2c(S)nnc2-c2[nH]nc3c2CCC3)ccc1O`, which IC50 (Large T antigen) is on record?
**A.** Its IC50 is 7.5 µM (active).

**Q.** And the IC50 [14]?
**A.** Its IC50 is > 100 µM (inactive).

**Q.** What about the IC50 [15] of the same compound?
**A.** Its IC50 is 1.56 µM (active).
